Results on three compounds are retold here after ChEMBL document CHEMBL3259607, “Hot spot-based design of small-molecule inhibitors for protein-protein interactions” (Bioorg Med Chem Lett, 2014).

Experiment [1] concerns the target T1, Interferon alpha/beta receptor 1 (Homo sapiens, UniProt P17181).
T1 sequence (P17181 whole entry): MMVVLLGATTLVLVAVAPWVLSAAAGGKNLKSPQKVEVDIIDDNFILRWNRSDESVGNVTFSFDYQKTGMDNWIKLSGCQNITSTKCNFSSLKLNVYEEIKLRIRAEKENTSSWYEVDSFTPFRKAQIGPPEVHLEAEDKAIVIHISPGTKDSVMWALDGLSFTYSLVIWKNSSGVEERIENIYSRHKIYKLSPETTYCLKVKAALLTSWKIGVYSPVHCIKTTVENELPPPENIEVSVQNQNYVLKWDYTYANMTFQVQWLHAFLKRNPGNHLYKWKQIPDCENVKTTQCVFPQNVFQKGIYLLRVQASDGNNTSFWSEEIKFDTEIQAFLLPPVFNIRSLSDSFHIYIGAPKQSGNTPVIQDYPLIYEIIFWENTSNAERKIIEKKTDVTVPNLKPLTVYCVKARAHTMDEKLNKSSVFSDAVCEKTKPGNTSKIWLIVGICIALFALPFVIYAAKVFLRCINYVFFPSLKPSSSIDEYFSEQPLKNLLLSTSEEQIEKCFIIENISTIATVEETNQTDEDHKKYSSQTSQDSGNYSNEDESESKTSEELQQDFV
The experiment is described as follows: Binding affinity to IFNAR (unknown origin) assessed as inhibition of interaction with IFN-alpha.

Experiment [2] deals with Von Hippel-Lindau disease tumor suppressor/Elongin B/Elongin C (Homo sapiens, UniProt P40337). The experiment is described as follows: Displacement of FAM-DEALAHyp-YIPD from VHL/elongins-B/elonginC (unknown origin) by fluorescence polarization assay. It is filed as protein-complex assay. On the technique in general: Polarisation of emitted light reports the rotation of a fluorescent probe.

The target of experiment [3] is TCF4/beta-catenin (Homo sapiens, UniProt P35222+Q9NQB0). Put plainly: Inhibition of beta-catenin/T cell factor (unknown origin). It is filed as protein-complex assay.
TCF4/beta-catenin, sequence (P35222 whole entry): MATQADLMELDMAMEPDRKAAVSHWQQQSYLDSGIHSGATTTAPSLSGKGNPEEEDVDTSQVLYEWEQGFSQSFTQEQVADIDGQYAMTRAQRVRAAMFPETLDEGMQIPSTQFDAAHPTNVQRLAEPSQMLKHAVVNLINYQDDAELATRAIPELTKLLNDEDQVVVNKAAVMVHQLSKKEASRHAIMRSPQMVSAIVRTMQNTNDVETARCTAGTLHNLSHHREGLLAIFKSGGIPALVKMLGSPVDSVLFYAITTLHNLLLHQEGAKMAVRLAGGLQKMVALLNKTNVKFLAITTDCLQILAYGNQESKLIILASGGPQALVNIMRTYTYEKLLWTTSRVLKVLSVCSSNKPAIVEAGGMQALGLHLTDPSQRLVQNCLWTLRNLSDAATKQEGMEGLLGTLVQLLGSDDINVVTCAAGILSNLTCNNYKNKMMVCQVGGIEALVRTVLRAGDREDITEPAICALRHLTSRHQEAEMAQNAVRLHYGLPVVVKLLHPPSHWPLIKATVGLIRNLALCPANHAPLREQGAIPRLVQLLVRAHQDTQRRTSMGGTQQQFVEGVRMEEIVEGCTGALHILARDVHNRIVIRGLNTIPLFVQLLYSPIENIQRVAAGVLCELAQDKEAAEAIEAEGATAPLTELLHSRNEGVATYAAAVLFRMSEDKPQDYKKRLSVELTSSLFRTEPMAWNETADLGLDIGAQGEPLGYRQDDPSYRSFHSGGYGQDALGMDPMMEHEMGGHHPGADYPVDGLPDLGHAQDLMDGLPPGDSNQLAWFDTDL
TCF4/beta-catenin, sequence (Q9NQB0 whole entry): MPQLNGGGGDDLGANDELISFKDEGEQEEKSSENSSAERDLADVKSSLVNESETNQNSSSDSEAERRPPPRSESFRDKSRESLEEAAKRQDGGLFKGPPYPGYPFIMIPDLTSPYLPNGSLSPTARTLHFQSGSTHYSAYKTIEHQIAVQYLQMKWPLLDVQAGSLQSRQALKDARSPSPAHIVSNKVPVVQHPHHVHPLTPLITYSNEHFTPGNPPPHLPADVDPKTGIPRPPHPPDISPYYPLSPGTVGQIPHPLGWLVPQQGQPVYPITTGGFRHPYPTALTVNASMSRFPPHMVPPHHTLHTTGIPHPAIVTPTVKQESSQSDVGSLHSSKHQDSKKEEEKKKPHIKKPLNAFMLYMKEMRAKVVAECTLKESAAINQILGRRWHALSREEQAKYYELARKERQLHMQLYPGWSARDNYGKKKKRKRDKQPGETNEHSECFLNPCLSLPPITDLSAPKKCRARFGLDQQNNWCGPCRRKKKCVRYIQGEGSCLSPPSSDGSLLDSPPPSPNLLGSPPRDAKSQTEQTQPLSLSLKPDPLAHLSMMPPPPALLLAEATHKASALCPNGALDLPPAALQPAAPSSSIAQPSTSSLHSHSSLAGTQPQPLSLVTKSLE

Von Hippel-Lindau disease tumor suppressor/Elongin B/Elongin C, sequence (P40337 whole entry, looked up): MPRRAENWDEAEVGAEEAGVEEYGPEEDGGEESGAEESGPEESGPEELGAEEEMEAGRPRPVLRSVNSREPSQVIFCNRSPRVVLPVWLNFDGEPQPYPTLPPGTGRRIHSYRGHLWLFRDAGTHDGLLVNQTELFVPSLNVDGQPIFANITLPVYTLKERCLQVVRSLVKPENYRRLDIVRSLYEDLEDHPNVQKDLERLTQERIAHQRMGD

`CNCc1ccccc1Sc1cccc2ccccc12`: in experiment [1], the dissociation constant (Kd) amounted to 4 µM.
As to `Cc1ncsc1-c1ccc(CNC(=O)[C@@H]2C[C@@H](O)CN2C(=O)c2cccc(N)c2C)cc1`, the IC50 in experiment [2] worked out at 0.9 µM.
`Oc1noc2cc(CCc3nn[nH]n3)ccc12` showed an inhibition constant (Ki) in experiment [3] of 1.35 µM.

Broadly, the Kd is the free concentration of one partner at which half of the binding sites on the other are occupied at equilibrium, for simple one-to-one binding. By IC50 is commonly meant the point on the concentration scale where inhibition reaches its midpoint. The low end stands for greater potency, the high end for weaker potency. By Ki is commonly meant a dissociation constant, usually derived from enzyme kinetics or from competition with a known ligand.
